{
  "source": "patent US20090326008A1",
  "about": "“NF-kappa B Inhibitor” (priority 2006, published 2009)",
  "system": "TNFα",
  "assay": "Relative TNFα mRNA expression in IL-1β-stimulated MKN-45 cells (real-time PCR)",
  "type": "cell-based, human",
  "settings": "IL-1β-stimulated DMSO-treated cells = 100%, ACTB reference",
  "experimental": "RNA was extracted from the cells used in Example 2 according to the manufacturer's protocol for ABI Prism 6100 Nucleic Acid PrepStation (a nucleic acid isolation system, product of Applied Biosystems). More specifically, after removal of the culture supernatant and washing with 1 mL of PBS, 250 μL of Nucleic Acid Purification Lysis Solution (Part No. 4305895, Applied Biosystems) was added, and then agitated using a shaker for 2 to 3 minutes. The Lysis Solution containing the cell lysate was collected, and the total amount was transferred to the wells of RNA Purification Tray (Part No. 4305673, Applied Biosystems), which had been pre-wet with 40 μL of Nucleic Acid Purification Wash Solution I (Part No. 4305891, Applied Biosystems) beforehand. Aspiration (20% pressure) was performed for 2 minutes to adsorb the sample onto the RNA Purification Tray, followed by sequentially adding and aspirating (20% pressure, 2 min.) 500 μL of Wash Solution I, Nucleic Acid Purification (Part No. 4305891, Applied Biosystems), 400 μL of Wash Solution II, Nucleic Acid Purification (Part No. 4305890, product of Applied Biosystems), 400 μL of the Wash Solution II, and 300 μL of the Wash Solution II in that order. Aspiration (90% pressure) was performed for 5 minutes to remove the water content from the RNA Purification Trays. After addition of 150 μL of Elution Solution, Nucleic Acid Purification (Part No. 4305893, product of Applied Biosystems), aspiration (20% pressure) was performed for 2 minutes, while collecting the outflow. This was used as collected RNA solution.\nAbsorbance of the collected RNA solution at 260 nm was measured using a microplate spectrophotometer (“SpectraMax Plus”, product of Molecular Devices) with an analysis software (“SOFTmaxPRO ver.3.1.2”, product of Molecular Devices), and the RNA concentration was determined from the absorbance. Likewise, absorbance at 280 nm was measured and the purity of the RNA was determined using the analysis software.\ncDNA was synthesized according to the manufacturer's protocol for TaqMan® Reverse Transcription Reagents (Part No. N808-0234, product of Applied Biosystems). More specifically, about 0.5 μg of RNA, 2.5 μL of 10×RT buffer, 5.5 μL of MgCl2 solution, 5 μL of dNTP mixture, 1.25 μL of random hexamer (primers), 0.5 μL of RNase inhibitor, and 0.63 μL of MultiScribe Reverse Transcriptase (product of Applied Biosystems) were added to each collected RNA sample in a tube, and DEPC-treated water was added to make a total volume of 25 μL and stirred. A reaction consisting of 25° C. for 10 minutes, 48° C. for 30 minutes, and 95° C. for 5 minutes was performed using a PCR thermal cycler (“TaKaRa PCR Thermal Cycler Dice”, product of Takara Bio Inc.) to prepare a cDNA solution.\nPCR was performed according to the manufacturer's protocol for TaqMan® Gene Expression Assays (product of Applied Biosystems). More specifically, 5 μL of TaqMan® Fast Universal PCR Master Mix (product of Applied Biosystems), 0.5 μL of TaqMan® Gene Expression Assays for the target gene (gene-specific probe and primer sets, product of Applied Biosystems), and 4.5 μL of the above-obtained cDNA solution were added to each sample and stirred. A PCR reaction consisting of heating at 95° C. for 20 seconds, followed by 40 cycles consisting of heating at 95° C. for 3 seconds and annealing and extension at 60° C. for 30 seconds was performed using a real-time PCR device (“Applied Biosystems 7500 Real-Time PCR System”) with SDS v1.4 Software (product of Applied Biosystems). Threshold cycle (Ct) values were calculated using the software.\nThe Assay IDs of the TaqMan® Gene Expression Assays for the target genes used are as follows:\nThe expression level of each gene was determined according to the following formula using the level of ACTB as a reference standard.\n(Relative mRNA expression level)=2̂−{(Ct value of the target gene)−(Ct value of ACTB)} […]",
  "data": [
    {"smiles": "COc1ccc(CC2SC(=S)NC2=O)c2c1N(CCC(C)C)C(=O)CC2", "note": "(stereo not shown) [Test Compound 965]", "values": [
      {"measurement": "TNFa relative mRNA expression level, Mean", "value": 63.0, "unit": "%"}
    ]}
  ]
}
